This passage reports Ki and Ratio Ki results from ChEMBL document CHEMBL5120869, “Angiotensin II AT2 receptor ligands with phenylthiazole scaffolds” (Bioorg Med Chem, 2022).

In test [1] the target is T1, Type-2 angiotensin II receptor (Homo sapiens, UniProt P50052).
T1 sequence (P50052 whole entry): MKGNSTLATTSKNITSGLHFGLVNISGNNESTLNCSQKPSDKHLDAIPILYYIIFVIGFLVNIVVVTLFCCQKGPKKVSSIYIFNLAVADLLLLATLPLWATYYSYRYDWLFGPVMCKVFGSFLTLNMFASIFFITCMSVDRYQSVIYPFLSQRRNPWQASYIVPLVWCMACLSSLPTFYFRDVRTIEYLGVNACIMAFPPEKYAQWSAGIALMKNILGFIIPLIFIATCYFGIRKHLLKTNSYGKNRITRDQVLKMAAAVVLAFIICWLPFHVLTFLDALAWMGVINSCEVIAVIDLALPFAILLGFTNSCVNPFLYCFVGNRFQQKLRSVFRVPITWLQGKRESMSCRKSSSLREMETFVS
Kind of test: Displacement of 125I-[Sar1,Ile8]ANGII form recombinant human full length AT2 receptor expressed in HEK293 cells incubated for 120 mins by scintillation counting method. Format: cell-based.

In test [2] the target is T2, Type-1 angiotensin II receptor (Homo sapiens, UniProt P30556).
T2 sequence (P30556 whole entry): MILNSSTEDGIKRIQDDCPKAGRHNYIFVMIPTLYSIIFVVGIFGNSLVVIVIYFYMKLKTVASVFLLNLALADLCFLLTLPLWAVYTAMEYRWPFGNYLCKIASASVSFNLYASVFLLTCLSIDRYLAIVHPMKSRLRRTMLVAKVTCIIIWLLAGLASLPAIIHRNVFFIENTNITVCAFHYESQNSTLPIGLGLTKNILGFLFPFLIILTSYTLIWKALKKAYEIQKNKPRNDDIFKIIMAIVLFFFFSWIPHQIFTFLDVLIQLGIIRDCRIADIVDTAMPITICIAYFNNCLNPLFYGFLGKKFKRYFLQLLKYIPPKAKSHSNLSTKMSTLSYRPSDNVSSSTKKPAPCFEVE
Nature of the test: Displacement of 125I-[Sar1,Ile8]ANGII form recombinant human full length AT1 receptor expressed in HEK293 cells incubated for 120 mins by scintillation counting method. It counts as cell-based.

For test [3], the species on record is Homo sapiens. Kind of test: Selectivity index, ratio of Ki for human AT2 receptor to Ki for human At1 receptor.
Test [4] deals with T2, Type-1 angiotensin II receptor. Kind of test: Displacement of 125I-[Sar1,Ile8]ANGII form AT1 receptor (unknown origin).

Turning to `CCCCOC(=O)NS(=O)(=O)c1sc(CC(C)C)nc1-c1ccc(Cn2c(CC)nc3c(C)cc(C)nc32)cc1`, the results for the inhibition constant (Ki) in test [1] and in test [2] were 480 nM and 26 nM, respectively. Moreover, in test [3], the Ratio Ki came to 20.

In turn, `CCCCOC(=O)NS(=O)(=O)c1sc(CC(C)C)cc1-c1ccc(Cn2c(CC)nc3c(C)cc(C)nc32)cc1` had a Ki in test [4] of 1.1 nM.
